The target in this test is Autotaxin (Homo sapiens, UniProt Q13822). In words: Biochemical Assay: Compound IC50 values are determined in a fluorescent hENPP2 (UniProtKB/SwissProt Sequence ref Q13822) biochemical assay using the fluorogenic autotaxin substrate FS-3 as substrate. FS-3 is a doubly labeled analog of LPC wherein the fluorophore is quenched through intramolecular energy transfer. Without hENPP2, the emission of the probe is quenched. If the substrate is hydrolyzed by hENPP2, the emission of the probe is not quenched anymore resulting in a fluorescence increase. Inhibition of hENPP2 by compounds will result in a decrease of the signal. 10 uL of a dilution series of compound, starting from 20 uM highest concentration, dilution, is added to the wells. hENPP2 is used at a final concentration of 0.4 ug/mL or 0.64 ug/mL (it will be appreciated by the skilled person that the potency read out is independent of the enzyme concentration). The enzyme is diluted in 50 mM Tris-HCl pH 8.0, 250 mM NaCl, 5 mM KCl, 1 mM MgCl2, 1 mM CaCl2, 0.1% fatty acid free BSA in a total volume of 20 uL. Enzyme mixture is added to compounds and the resulting mixture is incubated for 30 min at room temperature under shaking. The reaction is started by the addition of 20 uL of 0.75 uM FS-3 diluted in the same buffer as described above and the mixture is incubated at 30° C. for 30 min. Fluorescence is read on the Envision (Excitation 485 nm, emission 520 nm).

Results on one molecule are retold here after ChEMBL document CHEMBL5726561, “Compounds and pharmaceutical compositions thereof for the treatment of inflammatory disorders” (2017).

As a reminder, the IC50 is the midpoint of a concentration-inhibition curve.

Take `CCc1nc2ccc(N3CCC(NC(=O)C4CCOCC4)CC3)nn2c1N(C)c1nc(-c2ccc(F)cc2)cs1`: the 50% inhibitory concentration (IC50) is less than 1 µM.
